Results reported in patent publication US20250011296A1, “MODULATORS OF MOLECULAR TARGETS EXPRESSED IN METABOLIC AND INFLAMMATORY DISORDERS” (Ohio State Innovation Foundation, priority 2021, published 2025).

Biological target: T1, PARP-5 (tankyrase-1, TNKS1) (Homo sapiens, UniProt O95271)
T1 construct: purchased BPS Bioscience Inc
T1 sequence (O95271 1-1327): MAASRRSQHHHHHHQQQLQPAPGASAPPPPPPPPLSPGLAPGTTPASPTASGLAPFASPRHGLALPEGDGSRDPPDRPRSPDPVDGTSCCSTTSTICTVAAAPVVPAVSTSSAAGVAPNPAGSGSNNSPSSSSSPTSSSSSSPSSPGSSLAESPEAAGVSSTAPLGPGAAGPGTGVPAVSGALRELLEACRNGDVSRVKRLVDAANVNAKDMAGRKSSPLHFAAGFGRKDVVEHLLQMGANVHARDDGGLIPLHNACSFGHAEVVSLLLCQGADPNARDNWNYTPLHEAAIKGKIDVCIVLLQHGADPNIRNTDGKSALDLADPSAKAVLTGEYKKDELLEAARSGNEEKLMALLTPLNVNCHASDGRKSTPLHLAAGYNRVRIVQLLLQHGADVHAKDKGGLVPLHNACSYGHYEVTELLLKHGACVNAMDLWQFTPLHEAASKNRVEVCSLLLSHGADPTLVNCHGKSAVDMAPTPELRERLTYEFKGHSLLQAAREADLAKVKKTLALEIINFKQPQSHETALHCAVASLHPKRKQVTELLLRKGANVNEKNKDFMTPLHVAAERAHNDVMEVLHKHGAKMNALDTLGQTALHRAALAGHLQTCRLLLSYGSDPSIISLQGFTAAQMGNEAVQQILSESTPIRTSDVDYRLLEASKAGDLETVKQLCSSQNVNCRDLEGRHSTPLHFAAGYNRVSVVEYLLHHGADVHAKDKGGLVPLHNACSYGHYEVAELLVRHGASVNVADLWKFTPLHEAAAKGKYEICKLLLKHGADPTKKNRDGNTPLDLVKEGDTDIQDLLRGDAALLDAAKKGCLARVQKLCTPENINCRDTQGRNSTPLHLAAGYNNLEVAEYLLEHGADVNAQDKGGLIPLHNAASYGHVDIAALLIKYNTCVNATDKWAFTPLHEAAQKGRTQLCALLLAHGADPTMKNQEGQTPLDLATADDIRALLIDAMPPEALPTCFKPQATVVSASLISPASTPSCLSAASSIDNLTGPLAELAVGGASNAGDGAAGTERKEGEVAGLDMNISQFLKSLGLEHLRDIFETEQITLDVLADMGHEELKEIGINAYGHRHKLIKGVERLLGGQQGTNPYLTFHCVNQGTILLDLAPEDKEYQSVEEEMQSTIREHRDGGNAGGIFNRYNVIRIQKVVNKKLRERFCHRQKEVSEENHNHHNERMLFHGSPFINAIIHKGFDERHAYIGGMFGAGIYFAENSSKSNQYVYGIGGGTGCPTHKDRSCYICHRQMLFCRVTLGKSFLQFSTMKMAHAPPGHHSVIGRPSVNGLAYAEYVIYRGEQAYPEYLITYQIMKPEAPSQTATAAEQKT
Assay: PARP-5 enzyme assay (TNKS1 Histone Ribosylation Assay kit)
Type: biochemical
Details: for PARP-5 inhibitory activity / PARP-5% inhibition: 50 μg/mL; for PARP-5% inhibition: Table 20 summary; for inhibition at 50 µg/mL: read-out: PARP-5% inhibition, Table 15, isolates at 50 μg/mL
Experimental: Poly (ADP-ribose) polymerase 5 (PARP-5, also known as tankyrase-1 or TNKS1), is a nuclear enzyme involved in repairing single strand DNA breaks. Agonists of PARP-5 induce DNA repair, but the cost of PARP-5 activation is to slow glycolysis and limit GLUT-4-mediated glucose uptake. Small-molecule inhibition of the PARP-5 enzyme potentiates antidiabetic activities by increasing glucose uptake and insulin sensitivity. Extracts and compounds from the arils of M. fragrans were tested by using the TNKS1 Histone Ribosylation Assay kit (BPS Bioscience Inc.) according to the kit protocol. First, microplate wells were coated with immobilized histone substrate (50 μL) overnight at 4° C., then washed 3 times with PBS-Tween (200 μL). The wells were treated with blocking buffer and washed 3 times with PBS-Tween. The reaction mixture, which contained TNKS assay buffer and NAD+, was added to each sample well. Diluted sample solutions were added to the corresponding wells to achieve final concentrations of 50 μg/mL, followed by TNKS1 enzyme. After 1 hour, the plates were washed 3 times with PBS-Tween and incubated with primary antibody (1:800) for another hour. Following PBS-Tween wash, the secondary-HRP antibody was added (1:1000), incubated for 30 minutes, and finally chemiluminescent substrate was added. The plates were immediately measured for luminescence in the FLUOstar Optima plate reader (BMG Labtechnologies, GmbH, Inc.). The positive control included TNKS1 enzyme, NAD+, and DMSO; the substrate control included enzyme and DMSO; and the negative control included NAD+ and DMSO.297,304 The mace ethyl acetate fractions were screened for PARP-5 inhibition (Table 4).

Row | PARP-5 inhibitory activity | PARP-5% inhibition [%] | inhibition at 50 µg/mL [%] | Structure (SMILES)
1 | not effective PARP-5 inhibitors | <50 | < 50 | C/C=C/c1cc(OC)c2c(c1)[C@H](C)[C@@H](c1ccc3c(c1)OCO3)O2 [Compound 41, licarin B]
2 | not effective PARP-5 inhibitors | <50 | < 50 | C/C=C/c1cc(OC)c2c(c1)[C@H](C)[C@@H](c1ccc(O)c(OC)c1)O2 [Compound 42, licarin A]
